In ChEMBL document CHEMBL3108727, “Lupane triterpenoids from the stems of Euonymus carnosus” (J Nat Prod, 2014):

What was measured:
A549 = assay: Cytotoxicity against human A549 cells after 96 hrs by MTT assay; assay type: functional, cell-based; conditions: A549, 96 h
A2780 = assay: Cytotoxicity against human A2780 cells after 96 hrs by MTT assay; assay type: functional, cell-based; conditions: A2780, 96 h
[1] = Cytotoxicity against human Bel7402 cells after 96 hrs by MTT assay; assay type: functional, cell-based; conditions: Bel-7402, 96 h
[2] = Cytotoxicity against human BGC823 cells after 96 hrs by MTT assay; assay type: functional, cell-based; conditions: BGC-823, 96 h
[3] = Antiinflammatory activity in mouse BV2 cells assessed as inhibition of LPS-induced nitric oxide production after 24 hrs by Griess method; assay type: functional, cell-based; conditions: BV-2, 24 h
[4] = Cytotoxicity against human HCT8 cells after 96 hrs by MTT assay; assay type: functional, cell-based; conditions: HCT-8, 96 h
[5] = Cytotoxicity against mouse BV2 cells assessed as cell viability by MTT assay relative to LPS-treated control; assay type: cell-based, BV-2; set-up: concentration or dose not given beside the values; conditions: read-out: Activity

Row | SMILES | IC50 [3] [µM] | IC50 (A549) [µM] | IC50 (A2780) [µM] | IC50 [1] [µM] | IC50 [2] [µM] | IC50 [4] [µM] | viability [5] [%]
1 | CC(=O)[C@@H]1CC[C@]2(C)CC[C@]3(C)[C@H](CC[C@@H]4[C@@]5(C)CC[C@@H](O)C(C)(C)[C@@H]5CC[C@]43C)[C@@H]12 | > 10 | > 10 | > 10 | > 10 | > 10 | > 10 | 
2 | CC(=O)[C@@H]1CC[C@]2(C)CC[C@]3(C)[C@H](CC[C@@H]4[C@@]5(C)CC[C@H](O)C(C)(C)[C@@H]5CC[C@]43C)[C@@H]12 | 6.09 | > 10 | > 10 | > 10 | > 10 | > 10 | 93.5
3 | C[C@H](C(=O)O)[C@@H]1CC[C@]2(C)CC[C@]3(C)[C@H](CC[C@@H]4[C@@]5(C)CC[C@@H](O)C(C)(C)[C@@H]5CC[C@]43C)[C@@H]12 | 7.39 | > 10 | > 10 | > 10 | > 10 | > 10 | 87.3
4 | C[C@H](C(=O)O)[C@@H]1CC[C@]2(C)CC[C@]3(C)[C@H](CC[C@@H]4[C@@]5(C)CCC(=O)C(C)(C)[C@@H]5CC[C@]43C)[C@@H]12 | > 10 | > 10 | > 10 | > 10 | > 10 | > 10 | 
5 | C[C@@H](C(=O)O)[C@@H]1CC[C@]2(C)CC[C@]3(C)[C@H](CC[C@@H]4[C@@]5(C)CC[C@@H](O)C(C)(C)[C@@H]5CC[C@]43C)[C@@H]12 | 7.8 | > 10 | > 10 | > 10 | > 10 | > 10 | 96.8
6 | C[C@@H](O)[C@@H]1CC[C@]2(C)CC[C@]3(C)[C@H](CC[C@@H]4[C@@]5(C)CC[C@@H](O)C(C)(C)[C@@H]5CC[C@]43C)[C@@H]12 | 3.48 | > 10 | > 10 | > 10 | > 10 | > 10 | 94.2
7 | C[C@@H](CO)[C@@H]1CC[C@]2(C)CC[C@]3(C)[C@H](CC[C@@H]4[C@@]5(C)CCC(=O)C(C)(C)[C@@H]5C[C@H](O)[C@]43C)[C@@H]12 | > 10 | > 10 | > 10 | > 10 | > 10 | > 10 | 
8 | C[C@@H](CO)[C@@H]1CC[C@]2(C)C[C@H](O)[C@]3(C)[C@H](CC[C@@H]4[C@@]5(C)CCC(=O)C(C)(C)[C@@H]5CC[C@]43C)[C@@H]12 | > 10 | > 10 | > 10 | > 10 | > 10 | > 10 | 
9 | C=C(CO)[C@@H]1CC[C@]2(C)CC[C@]3(C)[C@H](CC[C@@H]4[C@@]5(C)CCC(=O)C(C)(C)[C@@H]5C[C@H](O)[C@]43C)[C@@H]12 | > 10 | > 10 | > 10 | > 10 | > 10 | > 10 | 
10 | C=C(CO)[C@@H]1CC[C@]2(C)C[C@H](O)[C@]3(C)[C@H](CC[C@@H]4[C@@]5(C)CCC(=O)C(C)(C)[C@@H]5CC[C@]43C)[C@@H]12 | > 10 | > 10 | > 10 | > 10 | > 10 | > 10 | 
11 | C=C(C=O)[C@@H]1CC[C@]2(C)CC[C@]3(C)[C@H](CC[C@@H]4[C@@]5(C)CC[C@@H](O)C(C)(C)[C@@H]5CC[C@]43C)[C@@H]12 | > 10 | > 10 | > 10 | > 10 | > 10 | > 10 | 
12 | CC(=O)C1=C2[C@H]3CC[C@@H]4[C@@]5(C)CC[C@@H](O)C(C)(C)[C@@H]5CC[C@@]4(C)[C@]3(C)CC[C@@]2(C)CC1=O | > 10 | > 10 | > 10 | > 10 | > 10 | > 10 | 
13 | C=C(C)[C@@H]1CC[C@]2(CO)CC[C@]3(C)[C@H](CC[C@@H]4[C@@]5(C)CC[C@@H](O)C(C)(C)[C@@H]5CC[C@]43C)[C@@H]12 [3-EPI-BETULIN] | 2.54 | > 10 | > 10 | > 10 | > 10 | > 10 | 89.3
14 | C=C(C)[C@@H]1CC[C@]2(CO)CC[C@]3(C)[C@H](CC[C@@H]4[C@@]5(C)CC[C@H](O)C(C)(C)[C@@H]5CC[C@]43C)[C@@H]12 [BETULIN] | > 10 | > 10 | > 10 | > 10 | > 10 | > 10 | 
15 | C=C(C)[C@@H]1CC[C@]2(CO)CC[C@]3(C)[C@H](CC[C@@H]4[C@@]5(C)CCC(=O)C(C)(C)[C@@H]5CC[C@]43C)[C@@H]12 [BETULONE] | > 10 | > 10 | > 10 | > 10 | > 10 | > 10 | 
16 | COc1cc(/C=C/C(=O)CC(=O)/C=C/c2ccc(O)c(OC)c2)ccc1O [CURCUMIN] | 0.53 |  |  |  |  |  | 93.3
17 | CC(=O)O[C@H]1C(=O)[C@@]2(C)[C@H]([C@H](OC(=O)c3ccccc3)[C@]3(O)C[C@H](OC(=O)[C@H](O)[C@@H](NC(=O)c4ccccc4)c4ccccc4)C(C)=C1C3(C)C)[C@]1(OC(C)=O)CO[C@@H]1C[C@@H]2O [PACLITAXEL] |  | 0.032 | 0.59 | 0.011 | 0.026 |  | 

More lines, main results first:

Row | IC50 [3] [µM] | SMILES | IC50 (A549) [µM] | IC50 (A2780) [µM] | IC50 [1] [µM] | IC50 [2] [µM] | IC50 [4] [µM] | viability [5] [%]
18 | > 10 | C=C(CO)[C@@H]1CC[C@]2(C)CC[C@]3(C)[C@H](CC[C@@H]4[C@@]5(C)CC[C@@H](O)C(C)(C)[C@@H]5CC[C@]43C)[C@@H]12 | > 10 | > 10 | > 10 | > 10 | > 10 | 
19 | 7.48 | CC(=O)O[C@@H]1CC[C@]2(C)[C@H]3CC[C@@H]4[C@H]5[C@H]([C@H](C)C(=O)O)CC[C@]5(C)CC[C@@]4(C)[C@]3(C)CC[C@H]2C1(C)C | > 10 | > 10 | > 10 | > 10 | > 10 | 98.5
20 | > 10 | C=C(CO)[C@@H]1CC[C@]2(CO)CC[C@]3(C)[C@H](CC[C@@H]4[C@@]5(C)CC[C@@H](OC(C)=O)C(C)(C)[C@@H]5CC[C@]43C)[C@@H]12 | 3.35 | > 10 | 2.77 | 4.09 | 3.21 | 
21 | > 10 | C=C(C)[C@@H]1CC[C@]2(C)CC[C@]3(C)[C@H](CC[C@@H]4[C@@]5(C)CC[C@@H](O)C(C)(C)[C@@H]5CC[C@]43C)[C@@H]12 | > 10 | > 10 | > 10 | > 10 | > 10 | 
22 | > 10 | C=C(CO)[C@@H]1CC[C@]2(C)CC[C@]3(C)[C@H](CC[C@@H]4[C@@]5(C)CCC(=O)C(C)(C)[C@@H]5CC[C@]43C)[C@@H]12 | > 10 | > 10 | > 10 | > 10 | > 10 | 
23 | > 10 | C=C(CO)[C@@H]1CC[C@]2(C)CC[C@]3(C)[C@H](CC[C@@H]4[C@@]5(C)CC[C@H](O)C(C)(C)[C@@H]5CC[C@]43C)[C@@H]12 | > 10 | > 10 | > 10 | > 10 | > 10 | 
24 | > 10 | CC(=O)O[C@@H]1CC[C@]2(C)[C@H]3CC[C@@H]4[C@H]5[C@H](C(C)=O)CC[C@]5(CO)CC[C@@]4(C)[C@]3(C)CC[C@H]2C1(C)C (relative stereo) | > 10 | > 10 | > 10 | > 10 | > 10 | 
25 | > 10 | CC(=O)[C@@H]1CC[C@]2(CO)CC[C@]3(C)[C@H](CC[C@@H]4[C@@]5(C)CC[C@@H](O)C(C)(C)[C@@H]5CC[C@]43C)[C@@H]12 (relative stereo) | > 10 | > 10 | > 10 | > 10 | > 10 | 
26 | > 10 | CC(=O)OC[C@]12CC[C@@H](C(C)=O)[C@@H]1[C@H]1CC[C@@H]3[C@@]4(C)CC[C@@H](O)C(C)(C)[C@@H]4CC[C@@]3(C)[C@]1(C)CC2 (relative stereo) | > 10 | > 10 | > 10 | > 10 | > 10 | 
27 | > 10 | C=C(C)[C@@H]1CC[C@]2(C)CC[C@]3(C)[C@H](CC[C@@H]4[C@@]5(C)CC[C@H](O)C(C)(C)[C@@H]5CC[C@]43C)[C@@H]12 [LUPEOL] | > 10 | > 10 | > 10 | > 10 | > 10 | 
